Measured values: PubChem BioAssay (NCI)
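Tested at 5 concentrations; 48 h exposure; 96-well plates; endpoints linearly interpolated, else capped at highest concentration. GI50 = concentration required for 50% inhibition of growth. TGI: total growth inhibition.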

Legend:
Test in all cases: NCI tumour cell line growth inhibition, 48 h
TK-10 renal = test system: TK-10 renal
SF-268 CNS = test system: SF-268 CNS
MCF7 breast = test system: MCF7 breast
OVCAR-4 ovarian = test system: OVCAR-4 ovarian
LOX IMVI melanoma = test system: LOX IMVI melanoma
HOP-62 NSCLC = test system: HOP-62 NSCLC
NCI/ADR-RES ovarian = test system: NCI/ADR-RES ovarian
NCI-H522 lung = test system: NCI-H522 lung
T-47D breast = test system: T-47D breast
MDA-MB-435 = test system: MDA-MB-435
CAKI-1 renal = test system: CAKI-1 renal
SF-539 CNS = test system: SF-539 CNS
A549 NSCLC = test system: A549 NSCLC
M14 melanoma = test system: M14 melanoma
SK-MEL-28 melanoma = test system: SK-MEL-28 melanoma
PC-3 prostate = test system: PC-3 prostate
HS 578T breast = test system: HS 578T breast
NCI-H460 lung = test system: NCI-H460 lung
UACC-257 melanoma = test system: UACC-257 melanoma
SK-MEL-5 melanoma = test system: SK-MEL-5 melanoma
DU-145 prostate = test system: DU-145 prostate
BT-549 breast = test system: BT-549 breast
SF-295 CNS = test system: SF-295 CNS
NCI-H226 lung = test system: NCI-H226 lung
MOLT-4 leukemia = test system: MOLT-4 leukemia
HOP-92 NSCLC = test system: HOP-92 NSCLC
HCC-2998 colon = test system: HCC-2998 colon
U251 CNS = test system: U251 CNS

SMILES: CCOC(=O)c1c(C)n2c(=O)cc(C)c3c(O)c(O)cc1c32
- TGI (TK-10 renal): > 100 µM
- GI50 (SF-268 CNS): 5.88 µM
- TGI (SF-268 CNS): > 100 µM
- GI50 (MCF7 breast): 6.61 µM
- TGI (MCF7 breast): > 100 µM
- GI50 (OVCAR-4 ovarian): 4.53 µM
- TGI (OVCAR-4 ovarian): > 100 µM
- GI50 (LOX IMVI melanoma): 3.98 µM
- TGI (LOX IMVI melanoma): 30.5 µM
- GI50 (HOP-62 NSCLC): 38.4 µM
- TGI (HOP-62 NSCLC): > 100 µM
- GI50 (NCI/ADR-RES ovarian): 28.3 µM
- TGI (NCI/ADR-RES ovarian): 89.4 µM
- GI50 (NCI-H522 lung): 3.4 µM
- TGI (NCI-H522 lung): 16.7 µM
- GI50 (T-47D breast): 9.26 µM
- TGI (T-47D breast): > 100 µM
- GI50 (MDA-MB-435): 14.5 µM
- TGI (MDA-MB-435): > 100 µM
- GI50 (CAKI-1 renal): 2.2 µM
- TGI (CAKI-1 renal): > 100 µM
- GI50 (SF-539 CNS): 16.6 µM
- TGI (SF-539 CNS): 55.3 µM
- GI50 (A549 NSCLC): 5.56 µM
- TGI (A549 NSCLC): 49.1 µM
- GI50 (M14 melanoma): 53.3 µM
- TGI (M14 melanoma): > 100 µM
- GI50 (SK-MEL-28 melanoma): 27.2 µM
- TGI (SK-MEL-28 melanoma): > 100 µM
- GI50 (PC-3 prostate): 4.23 µM
- TGI (PC-3 prostate): > 100 µM
- GI50 (HS 578T breast): 25.6 µM
- TGI (HS 578T breast): > 100 µM
- GI50 (NCI-H460 lung): 12.9 µM
- TGI (NCI-H460 lung): > 100 µM
- GI50 (UACC-257 melanoma): 2.7 µM
- TGI (UACC-257 melanoma): 7.65 µM
- GI50 (SK-MEL-5 melanoma): 4.67 µM
- TGI (SK-MEL-5 melanoma): 24.1 µM
- GI50 (DU-145 prostate): 29.1 µM
- TGI (DU-145 prostate): > 100 µM
- GI50 (BT-549 breast): 15.9 µM
- TGI (BT-549 breast): 79.7 µM
- GI50 (SF-295 CNS): 10.3 µM
- TGI (SF-295 CNS): > 100 µM
- GI50 (NCI-H226 lung): 9.2 µM
- TGI (NCI-H226 lung): 93.5 µM
- GI50 (MOLT-4 leukemia): 1.34 µM
- TGI (MOLT-4 leukemia): 15.2 µM
- GI50 (HOP-92 NSCLC): 2.49 µM
- TGI (HOP-92 NSCLC): 31.6 µM
- GI50 (HCC-2998 colon): 40.8 µM
- TGI (HCC-2998 colon): > 100 µM
- GI50 (U251 CNS): 4.68 µM
- TGI (U251 CNS): 30.5 µM
